In brackets after ≈: the same amount, converted by molar mass. Like-named read-outs stand apart in the source and are kept apart here.
Assays:
[1] = tested on: S. aureus ATCC 25923; assay: Antibacterial activity, post-exposure on preformed 18-h-old biofilms; type: cell-based, Staphylococcus aureus; details: ± SD; for inhibition at 25 µM / inhibition at 50 µM / inhibition at 100 µM / inhibition at 200 µM: Staphylococcus aureus; for inhibition at 25 µM: ATCC25923, 25 µM; for inhibition at 50 µM: ATCC25923, 50 µM; for inhibition at 100 µM: ATCC25923, 100 µM; for inhibition at 200 µM: ATCC25923, 200 µM
Outline: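 Compounds were applied to preformed 18-h biofilms after medium change and left 24 h. Read-outs: planktonic OD plus resazurin fluorescence (20 μM), biofilm metabolic activity by resazurin 30 min at 37 °C, then biomass by crystal violet absorbance at 595 nm after ethanol fixation.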

[2] = tested on: P. aeruginosa ATCC 9027; assay: Antibacterial activity, pre-exposure; type: cell-based, Pseudomonas aeruginosa; details: for Average inhibition %, biofilms viability / Average inhibition %, planktonic cells viability / inhibition at 50 µM / inhibition at 100 µM / inhibition at 150 µM / inhibition at 200 µM: P. aeruginosa ATCC 9027, pre-exposure, ± SD; for inhibition at 50 µM / inhibition at 100 µM / inhibition at 150 µM / inhibition at 200 µM: Pseudomonas aeruginosa, ATCC9027
Outline: (§1)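 For planktonic resazurin, 20 μM final was used: 3–10 min at RT for S. aureus and A. baumannii, 20 min at 37 °C for P. aeruginosa. Cultures had been co-incubated with compound for 18 h at 37 °C, 220 rpm. Biofilms were then assessed by resazurin and crystal violet.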

[3] = tested on: A. baumannii NCTC 13423; assay: Antibacterial activity, pre-exposure; type: cell-based, Acinetobacter baumannii; details: for Average inhibition %, biofilms viability / Average inhibition %, planktonic cells viability / inhibition at 10 µM / inhibition at 15 µM / inhibition at 25 µM / inhibition at 50 µM: A. baumannii NCTC 13423, pre-exposure, ± SD; for inhibition at 10 µM / inhibition at 15 µM / inhibition at 25 µM / inhibition at 50 µM: Acinetobacter baumannii, NCTC13423
Outline: as §1

[4] = tested on: S. aureus ATCC 25923; assay: Antibacterial activity, pre-exposure (planktonic cells and biofilm formation); type: cell-based, Staphylococcus aureus; details: for MIC / inhibition at 5 µM / inhibition at 10 µM / inhibition at 15 µM / inhibition at 25 µM: Staphylococcus aureus, ATCC25923; for inhibition at 5 µM / inhibition at 10 µM / inhibition at 15 µM / inhibition at 25 µM / Average inhibition %, biofilms viability / Average inhibition %, planktonic cells viability: pre-exposure, ± SD
Outline: as §1

[5] = read-out: Average inhibition %, biofilms biomass
[6] = read-out: Average inhibition %, planktonic cells turbidity
[7] = 50 µM, read-out: Average inhibition %, biofilms biomass
[8] = 50 µM, read-out: Average inhibition %, planktonic cells turbidity
[9] = 10 µM, read-out: Average inhibition %, biofilms biomass
[10] = 10 µM, read-out: Average inhibition %, planktonic cells turbidity
[11] = 15 µM, read-out: Average inhibition %, biofilms biomass
[12] = 15 µM, read-out: Average inhibition %, planktonic cells turbidity
[13] = 25 µM, read-out: Average inhibition %, biofilms biomass
[14] = 25 µM, read-out: Average inhibition %, planktonic cells turbidity

Structure (SMILES): CCCCCCCCCCOc1ccc(CCC(N)(CO)CO)cc1 [Compound 49, 2-Amino-2-[4-(decyloxy)phenethyl]propane-1,3-diol]
- Average inhibition %, biofilms viability ([1]; 25 µM): 23.1 ± 12%
- Average inhibition %, planktonic cells viability ([1]; 25 µM): 0 ± 0%
- Average inhibition %, biofilms viability ([1]; 50 µM): 31.6 ± 11.1%
- Average inhibition %, planktonic cells viability ([1]; 50 µM): 0 ± 0%
- Average inhibition %, biofilms viability ([1]; 100 µM): 30.4 ± 13.1%
- Average inhibition %, planktonic cells viability ([1]; 100 µM): 6 ± 10.4%
- Average inhibition %, biofilms viability ([1]; 200 µM): 18.9 ± 12.3%
- Average inhibition %, planktonic cells viability ([1]; 200 µM): 24.6 ± 9.6%
- inhibition at 25 µM [1, 5]: 46.2 ± 2.6%
- inhibition at 25 µM [1, 6]: 1 ± 1.8%
- inhibition at 50 µM [1, 5]: 41.6 ± 16.2%
- inhibition at 50 µM [1, 6]: 6.6 ± 6.1%
- inhibition at 100 µM [1, 5]: 47.3 ± 10.1%
- inhibition at 100 µM [1, 6]: 18.3 ± 26.2%
- inhibition at 200 µM [1, 5]: 41.4 ± 16.7%
- inhibition at 200 µM [1, 6]: 45 ± 23.1%
- Average inhibition %, biofilms viability ([2]; 50 µM): 1.1 ± 1%
- Average inhibition %, planktonic cells viability ([2]; 50 µM): 11.2 ± 5%
- Average inhibition %, biofilms viability ([2]; 100 µM): 1.4 ± 1.7%
- Average inhibition %, planktonic cells viability ([2]; 100 µM): 11 ± 9.5%
- Average inhibition %, biofilms viability ([2]; 150 µM): 1.8 ± 2.2%
- Average inhibition %, planktonic cells viability ([2]; 150 µM): 10.3 ± 10.8%
- Average inhibition %, biofilms viability ([2]; 200 µM): 4.2 ± 7.4%
- Average inhibition %, planktonic cells viability ([2]; 200 µM): 8.8 ± 10.7%
- inhibition at 50 µM [2, 7]: 5.1 ± 7.7%
- inhibition at 50 µM [2, 8]: 11.2 ± 9.7%
- inhibition at 100 µM ([2]; 100 µM, read-out: Average inhibition %, biofilms biomass): 2.5 ± 1.1%
- inhibition at 100 µM ([2]; 100 µM, read-out: Average inhibition %, planktonic cells turbidity): 19.8 ± 7.4%
- inhibition at 150 µM ([2]; 150 µM, read-out: Average inhibition %, biofilms biomass): 2.8 ± 4.2%
- inhibition at 150 µM ([2]; 150 µM, read-out: Average inhibition %, planktonic cells turbidity): 11.4 ± 10.1%
- inhibition at 200 µM ([2]; 200 µM, read-out: Average inhibition %, biofilms biomass): 2.2 ± 2.8%
- inhibition at 200 µM ([2]; 200 µM, read-out: Average inhibition %, planktonic cells turbidity): 16.7 ± 3%
- MIC P. aeruginosa ATCC 9027 ([2]; pre-exposure, Inactive = no activity up to 200 μM, > = some inhibition but no MIC reached): Inactive
- Average inhibition %, biofilms viability ([3]; 10 µM): 0 ± 0%
- Average inhibition %, planktonic cells viability ([3]; 10 µM): 12 ± 4.3%
- Average inhibition %, biofilms viability ([3]; 15 µM): 0 ± 0%
- Average inhibition %, planktonic cells viability ([3]; 15 µM): 8.5 ± 10.6%
- Average inhibition %, biofilms viability ([3]; 25 µM): 0 ± 0%
- Average inhibition %, planktonic cells viability ([3]; 25 µM): 2.6 ± 4.5%
- Average inhibition %, biofilms viability ([3]; 50 µM): 9 ± 8.3%
- Average inhibition %, planktonic cells viability ([3]; 50 µM): 0 ± 0%
- inhibition at 10 µM [3, 9]: 0%
- inhibition at 10 µM [3, 10]: 0%
- inhibition at 15 µM [3, 11]: 1.5 ± 2.4%
- inhibition at 15 µM [3, 12]: 0%
- inhibition at 25 µM [3, 13]: 1.1 ± 1.9%
- inhibition at 25 µM [3, 14]: 0%
- inhibition at 50 µM [3, 7]: 4.1 ± 7.2%
- inhibition at 50 µM [3, 8]: 1.2 ± 2.1%
- MIC A. baumannii NCTC 13423 ([3]; pre-exposure, Inactive = no activity up to 50 μM, > = some inhibition but no MIC reached): Inactive
- MIC ([4]; lowest concentration with no visible growth (>90% inhibition of turbidity and viability of planktonic cells), 18 h, read-out: MIC S. aureus ATCC 25923): 50 to 100 µM (≈ 17.6 to 35.2 µg/mL)
- inhibition at 5 µM ([4]; 5 µM, read-out: Average inhibition %, biofilms biomass): 21.1 ± 15.7%
- inhibition at 5 µM ([4]; 5 µM, read-out: Average inhibition %, planktonic cells turbidity): 25 ± 31.1%
- inhibition at 10 µM [4, 9]: 24.7 ± 21.7%
- inhibition at 10 µM [4, 10]: 40.2 ± 21.5%
- inhibition at 15 µM [4, 11]: 42.1 ± 13.8%
- inhibition at 15 µM [4, 12]: 32.7 ± 33.7%
- inhibition at 25 µM [4, 13]: 65 ± 8%
- inhibition at 25 µM [4, 14]: 52 ± 35.7%
- MIC ([4]; read-out: MIC (S. aureus)): 50 to 100 µM (≈ 17.6 to 35.2 µg/mL)
- Average inhibition %, biofilms viability ([4]; 5 µM): 21.8 ± 13.4%
- Average inhibition %, planktonic cells viability ([4]; 5 µM): 5.8 ± 6.5%
- Average inhibition %, biofilms viability ([4]; 10 µM): 19.2 ± 19.6%
- Average inhibition %, planktonic cells viability ([4]; 10 µM): 16 ± 20.8%
- Average inhibition %, biofilms viability ([4]; 15 µM): 34.9 ± 12.5%
- Average inhibition %, planktonic cells viability ([4]; 15 µM): 6.5 ± 7.4%
- Average inhibition %, biofilms viability ([4]; 25 µM): 46.4 ± 5.4%
- Average inhibition %, planktonic cells viability ([4]; 25 µM): 34.4 ± 41.1%

From article PMC8296573, “Synthesis and Biological Evaluation of Fingolimod Derivatives as Antibacterial Agents” (ACS Omega, 2021)
